The values that follow come from patent EP4722213A1, “NITROGEN-CONTAINING FUNCTIONAL GROUP-SUBSTITUTED PYRIDAZINOPYRIDONE DERIVATIVE AND USE THEREOF” (Sichuan Huiyu Pharmaceutical Co., Ltd., priority 2023, dated 2024).

A word on the half-life: it is the time in which the quantity being followed falls by half. A low value points to rapid decline.

Series [1] can be described thus: Rat liver microsomal metabolic stability. It counts as in vitro ADME. Conditions: rat liver microsomes; for half-life at 1 µM: NADPH, 37°C; for CLint scaled at 1 µM: calculated from T1/2, fu defaulted to 1, read-out: CL(liver). From the text: Metabolic stability affects the clearance rate, half-life, and oral bioavailability of compounds in the body, and is one of the most important ADME drug-like properties of compounds. Hepatocyte microsomal stability assay is a commonly used method for studying metabolic stability. In the present disclosure, rat liver microsomes are used to determine and investigate the metabolic stability of compounds.
Preparation of compound stock solution: an appropriate amount of the test compound and testosterone was taken, and a 1 mM stock solution was prepared with DMSO, which was stored in a refrigerator at 4°C.
Preparation of compound working solution: The 1 mM compound stock solution was taken respectively, and then diluted to 100 µM with acetonitrile-water (v:v = 1:1) to obtain the working solution.
Preparation of NADPH working solution: an appropriate amount of NADPH was weighed and dissolved in 16 mM MgCl2 to prepare a NADPH working solution with a concentration of 4.0 mM.
Preparation of rat liver microsome working solution: an appropriate amount of rat liver microsomes was taken and diluted with PBS to obtain a liver microsome working solution with a concentration of 1 mg/mL.
In the incubation system, 48 µL of PBS, 100 µL of rat liver microsome working solution, and 2 µL of the test compound working solution were sequentially added and mixed well. After pre-incubation at 37°C for 5 min, 50 µL of NADPH was added to initiate the reaction. After incubation for the corresponding time points, an appropriate amount of ice-cold acetonitrile containing an internal standard was added to terminate the reaction. The mixture was vortexed to mix well, centrifuged, and the supernatant was collected. The supernatant was injected into LC-MS/MS for detection of the residual metabolic amount of the compound.
Softwares of Excel, etc. were used for data processing according to the following formula. Ct = C0 •e^(−ke •t) [formula] when Ct = (1)/(2)C0 [formula] , T1/2 = (Ln2)/(ke) = (0.693)/(ke) [formula] CLint(mic) = (0.693)/(In vitro T1/2)•(1)/(mg/mL microsomal protein in reaction system) [formula] CLint(liver) = CLint(mic) •(mg microsomes)/(g liver)•(g liver)/(kg body weight) [formula] CL(liver) = (CLint(liver)×fu×Qh)/(CLint(liver)×fu+Qh) [formula] fu (unbound fraction in blood) was defaulted to be 1.

The next series addresses T1, SOS1 (Homo sapiens, UniProt Q07889).
T1 sequence (Q07889 1-1333): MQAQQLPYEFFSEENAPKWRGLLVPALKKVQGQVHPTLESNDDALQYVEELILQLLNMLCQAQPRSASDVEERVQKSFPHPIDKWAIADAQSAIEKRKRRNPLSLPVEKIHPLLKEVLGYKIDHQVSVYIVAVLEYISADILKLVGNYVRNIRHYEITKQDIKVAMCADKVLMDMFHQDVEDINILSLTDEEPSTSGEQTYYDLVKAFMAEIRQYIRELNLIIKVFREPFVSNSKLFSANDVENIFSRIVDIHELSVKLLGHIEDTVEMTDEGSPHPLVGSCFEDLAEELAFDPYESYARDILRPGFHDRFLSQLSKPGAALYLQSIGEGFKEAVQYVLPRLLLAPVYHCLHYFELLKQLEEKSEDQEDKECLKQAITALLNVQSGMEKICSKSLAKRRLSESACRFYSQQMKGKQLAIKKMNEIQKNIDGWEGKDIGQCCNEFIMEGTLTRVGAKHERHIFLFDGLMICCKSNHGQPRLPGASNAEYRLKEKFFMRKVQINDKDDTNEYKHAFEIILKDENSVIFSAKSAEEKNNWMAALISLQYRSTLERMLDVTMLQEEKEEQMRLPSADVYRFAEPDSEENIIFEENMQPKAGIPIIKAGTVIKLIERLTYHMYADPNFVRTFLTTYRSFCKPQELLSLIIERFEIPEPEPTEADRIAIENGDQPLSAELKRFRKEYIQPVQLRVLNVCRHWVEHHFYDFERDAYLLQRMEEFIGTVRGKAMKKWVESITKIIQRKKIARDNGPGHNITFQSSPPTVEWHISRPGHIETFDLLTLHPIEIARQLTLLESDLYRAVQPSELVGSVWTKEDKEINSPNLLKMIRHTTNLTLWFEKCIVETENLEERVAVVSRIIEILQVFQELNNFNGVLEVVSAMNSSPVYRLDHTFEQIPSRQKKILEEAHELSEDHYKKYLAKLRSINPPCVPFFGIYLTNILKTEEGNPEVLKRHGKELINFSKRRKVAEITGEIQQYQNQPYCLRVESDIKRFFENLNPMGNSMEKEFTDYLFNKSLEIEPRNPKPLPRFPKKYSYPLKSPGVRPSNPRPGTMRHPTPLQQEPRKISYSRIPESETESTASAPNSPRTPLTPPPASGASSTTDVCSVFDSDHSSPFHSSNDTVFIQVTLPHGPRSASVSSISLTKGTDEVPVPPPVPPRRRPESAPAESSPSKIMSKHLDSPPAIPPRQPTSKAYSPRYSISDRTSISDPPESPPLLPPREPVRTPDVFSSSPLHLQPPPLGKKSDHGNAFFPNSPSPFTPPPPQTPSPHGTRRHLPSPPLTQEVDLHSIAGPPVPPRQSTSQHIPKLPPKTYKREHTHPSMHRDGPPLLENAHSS
Briefly: biochemical.

The test system of series [2] is NCI-H358 non-small cell lung cancer cells. Nature of the series: Inhibition of NCI-H358 cell proliferation (CellTiter-Glo 3D, 7 days). The following applies: Homo sapiens, NCI-H358, 168 h, 3D microspheres, read-out: Inhibitory activity against NCI-H358 cell proliferation (IC50). It counts as cell-based. The protocol: The number of viable cells were detected by CellTiter-Glo 3D® reagent, thereby evaluating the inhibitory effect of compounds on cell proliferation. NCI-H358 non-small cell lung cancer cells (Nanjing cobioer) in the exponential growth phase were digested with trypsin-EDTA, and seeded into 96-well ultra-low attachment microplates at 100 µL per well with a density of 2000 cells/well. The cells were cultured overnight at 37°C with 5% CO2 to form microspheres. The test compounds were serially diluted 5-fold with DMSO to obtain 8 concentration gradient dilutions, then diluted with RPMI-1640 (10% FBS) cell culture medium respectively to obtain compound working solutions (2×). 100 µL per well was added to the cell supernatant, and the culture was continued for 7 days under the conditions of 37°C and 5% CO2. The well plate was removed, and 100 µL of CellTiter-Glo 3D® reagent was added. After lysis at room temperature for 10-30 minutes, 70 µL of the lysate was aspirated and transferred to a white opaque 384-well plate.
The inhibition rate was calculated by the following formula: [formula] Note: The negative control refers to the group without inhibitor, and the blank refers to the group without cells.
The inhibitory activities of some Example compounds and comparative compounds against NCI-H358 cell proliferation are shown in Table 2. Table 2. Inhibitory activity of some Example compounds against NCI-H358 cell proliferation
(In general: ATP-based viability assays read luminescence as a measure of living cells.)

Where a name gives a salt, the structure may show the parent alone.

Consider `C[C@@H](Nc1nnc(NC2CC2)c2cc(=O)n(C3(C)CC3)cc12)c1cccc(C(F)F)c1F` [Example 10, (R)-1-(cyclopropylamino) -4-((1-(3-(difluoromethyl)-2-fluorophenyl)ethyl)amino)-6-(1-methylcyclopropyl) pyrido[3,4-d]pyridazin-7(6H)-one], for which, in series [1], the half-life at 1 µM was found to be 0.483 h and the CLint scaled at 1 µM was 2.02 L/h/kg. For the same molecule, the IC50 against SOS1 was 5.8 nM.
The corresponding values for `C[C@@H](Nc1nnc(NC2(C)CC2)c2cc(=O)n(C3(C)CC3)cc12)c1cccc(C(F)F)c1F` [Example 11, (R)-4-((1-(3-(difluoromethyl)-2-fluorophenyl)ethyl)amino)-6-(1-methylcyclopropyl)-1-((1-methylcyclopropyl)amino)pyrido[3,4-d]pyridazin-7(6H)-one] are 0.855 h, 1.55 L/h/kg and 1.4 nM.
On to `C[C@@H](Nc1nnc(N2CCC2)c2cc(=O)n(C3CC3)cc12)c1cccc(C(F)F)c1F` [Example 15, (R)-1-(azetidin-1-yl)-6-cyclopropyl-4-((1-(3-(difluoromethyl)-2-fluorophenyl)ethyl)amino)pyrido[3,4-d]pyridazin-7(6H)-one], for which, in series [1], the half-life at 1 µM is 0.787 h and the CLint scaled at 1 µM is 1.62 L/h/kg. In addition, at SOS1, the IC50 came out at 5.5 nM.
Take `CNc1nnc(N[C@H](C)c2cccc(C#N)c2C)c2cn(C3CC3)c(=O)cc12` [Example 38, (R)-3-(1-((6-cyclopropyl-1-(methylamino)-7-oxo-6,7-dihydropyrido[3,4-d]pyridazin-4-yl)amino)ethyl)-2-methylbenzonitrile]: in series [1], the half-life at 1 µM worked out at 3.55 h and the CLint scaled at 1 µM is 0.582 L/h/kg. For the same molecule, the IC50 at SOS1 was determined as 5 nM.
On the same counts, the results for `Cc1c([C@@H](C)Nc2nnc(N3CCC3)c3cc(=O)n(C4CC4)cc23)cccc1C(F)(F)F.O=CO` [Example 50, (R)-1-(azetidin-1-yl)-6-cyclopropyl-4-((1-(2-methyl-3-(trifluoromethyl)phenyl)ethyl)amino)pyr ido[3,4-d]pyridazin-7(6H)-one formate] are 2.18 h, 0.852 L/h/kg and 5.8 nM.
On the same counts, the results for `C[C@@H](Nc1nnc(N2CCNCC2)c2cc(=O)n(C3(C)CC3)cc12)c1cccc(C(F)F)c1F` [Example 78, (R)-4-((1-(3-(difluoromethyl)-2-fluorophenyl)ethyl)amino)-6-(1-methylcyclopropyl)-1-(piperazin-1-yl)pyrido[3,4-d]pyridazin-7(6H)-one] are 4.22 h, 0.504 L/h/kg and 4.6 nM.
Take `CC(C)C1CCN(c2nnc(N[C@H](C)c3cccc(C(F)F)c3F)c3cn(C4(C)CC4)c(=O)cc23)CC1` [Example 121, (R)-4-((1-(3-(difluoromethyl)-2-fluorophenyl)ethyl)amino)-1-(4-isopropylpiperidin-1-yl)-6-(1-methylcyclopropyl) pyrido[3,4-d]pyridazin-7(6H)-one]: in series [1], the half-life at 1 µM is above 5 h and the CLint scaled at 1 µM is below 0.434 L/h/kg. Besides, the IC50 against SOS1 came out at 5.5 nM.
On SOS1, `C[C@@H](Nc1nnc(N(C)C2CC2)c2cc(=O)n(C3(C)CC3)cc12)c1cccc(C(F)F)c1F` [Example 225, (R)-1-(cyclopropyl(methyl)amino)-4-((1-(3-(difluoromethyl)-2-fluorophenyl)ethyl)amino)-6-(1-methylcyclopropyl) pyrido[3,4-d]pyridazin-7(6H)-one] came in with an IC50 of 7.6 nM.
The same measure, in the same setting: the same measure for `C[C@@H](Nc1nnc(N2CCN(C)CC2)c2cc(=O)n(C3(C)CC3)cc12)c1cccc(C(F)(F)CO)c1` [Example 226, (R)-4-((1-(3-(1,1-difluoro-2-hydroxyethyl)phenyl)ethyl)amino)-6-(1-methylcyclopropyl)-1-(4-methylpiperazin-1-yl)pyrido[3,4-d]pyridazin-7(6H)-one]: 4.3 nM; for `C[C@@H](Nc1nnc(N2CCC(CO)C2)c2cc(=O)n(C3(C)CC3)cc12)c1cccc(C(F)(F)CO)c1` (stereo partly drawn) [Example 228, 4-(((R)-1-(3-(1,1-difluoro-2-hydroxyethyl)phenyl)ethyl)amino)-1-(3-(hydroxymethyl)pyrrolidin-1-yl)-6-(1-methylcyclopropyl) pyrido[3,4-d]pyridazin-7(6H)-one]: 4.4 nM.
The same measure, in the same setting: to `C[C@@H](Nc1nnc(N2CC(CO)C2)c2cc(=O)n(C3(C)CC3)cc12)c1cccc(C(F)(F)CO)c1` [Example 229, (R)-4-((1-(3-(1,1-difluoro-2-hydroxyethyl)phenyl)ethyl)amino)-1-(3-(hydroxymethyl)azetidin-1-yl)-6-(1-methylcyclopropyl) pyrido[3,4-d]pyridazin-7(6H)-one] belongs 4.5 nM.
In the case of `Cc1nnc(N[C@H](C)c2cccc(C(F)(F)F)c2)c2cn(C3(C)CC3)c(=O)cc12` [comparative compound2, (R)-1-methyl-6-(1-methylcyclopropyl)-4-((1-(3-(trifluoromethyl)phenyl)ethyl)amino)pyrido[3,4-d]pyridazin-7(6H)-one hydrochloride, reference compound], in series [2], the IC50 is 377 nM.
Same read-out and setting: the same measure for `Cc1c([C@@H](C)Nc2nnc(C)c3cc(=O)n(C4(C)CC4)cc23)cccc1C(F)(F)F` [comparative compound 1, (R)-1-methyl-4-((1-(2-methyl-3-(trifluoromethyl)phenyl)ethyl)amino)-6-(1-methylcyclopropyl) pyrido[3,4-d]pyridazin-7(6H)-one, reference compound]: 282 nM.
